Experiments:
[1] = 40° C./75% RH; for XRPD of stressed sample (solid form after stress): 4 days, result in words
[2] = for hygroscopicity suggested by DVS data: 5% to 95% RH; for weight gain observed on the sorption step: DVS whole sorption step
Description: Samples ae not dried prior to analysis. Equilibrium criteria used for analysis were less than 0.0100% weight change in 5 minutes, with a maximum equilibration time of 3 hours if the weight criterion was not met. Data are not corrected for the initial moisture content of the samples. Sodium chloride and polyvinypyrrolidine are used as calibration standards.

[3] = DVS desorption, result in words

SMILES | net weight gain after 4 days [1] | XRPD of stressed sample (solid form after stress) [1] | hygroscopicity suggested by DVS data ([2]; result in words) | weight loss from 75 to 5% RH ([2]; DVS desorption, 75 to 5% RH) | weight loss from 95 to 75% RH ([2]; DVS desorption, 95 to 75% RH) | hysteresis upon desorption [2, 3] | weight gain from 5 to 75% RH ([2]; DVS sorption) | weight gain from 75 to 95% RH ([2]; DVS sorption, 75 to 95% RH (above 75% RH)) | weight gain observed on the sorption step [2] | Post DVS XRPD (solid form after DVS) ([2]; XRPD of sample after DVS) | net weight loss after 4 days [1] | weight loss from 95 to 5% RH ([2]; DVS desorption) | behaviour of material in DVS (deliquescence) ([2]; DVS, upon desorption, result in words) | weight gain from 5 to 95% RH ([2]; DVS sorption, 5 to 95% RH) | weight loss upon equilibration at 5% RH ([2]; DVS sorption, equilibration at 5% RH) | net weight loss after sorption and desorption ([2]; DVS, desorption versus sorption)
COc1cc2c(c(OC)c1OC)-c1ccc(OC)c(=O)cc1[C@@H](NC(C)=O)CC2.O=C(O)C[C@H](O)C(=O)O [colchicine malic acid co-crystal] | approximately 5.4% | remains unchanged | hygroscopic | 9.6% weight loss from 75 to 5% RH | 15.0% weight loss from 95 to 75% RH | no hysteresis | 6.2% weight gain from 5 to 75% RH | 15.6% weight gain from 75 to 95% RH | approximately 22% | Colchicine malic acid co-crystal | – | – | – | – | – | –
COc1cc2c(c(OC)c1OC)-c1ccc(OC)c(=O)cc1[C@@H](NC(C)=O)CC2.COc1cc2c(c(OC)c1OC)-c1ccc(OC)c(=O)cc1[C@@H](NC(C)=O)CC2.O=C(O)C(=O)O [colchicine oxalic acid co-crystal] | – | colchicine oxalic acid co-crystal, but minor disorder and shifting of the peaks is observed | hygroscopic | – | – | Significant hysteresis | 0.5% weight gain from 5 to 75% RH | – | – | – | approximately 6.7% | 15.2% weight loss from 95 to 5% RH | deliquesces | – | – | –
COc1cc2c(c(OC)c1OC)-c1ccc(OC)c(=O)cc1[C@@H](NC(C)=O)CC2.Cc1ccc(S(=O)(=O)O)cc1 | approximately 1.0% | unchanged | not significantly hygroscopic | – | – | – | – | – | ~0.4% | – | – | 0.5% weight loss from 95 to 5% RH | – | 0.4% weight gain from 5 to 95% RH | 0.01% weight loss upon equilibration at 5% RH | ~0.01%
